Results on 13 compounds are retold here after ChEMBL document CHEMBL1124431, “Preparation and antitumor activity of additional mitomycin A analogues” (J Med Chem, 1989).

A short description of data set [1]: Partition coefficient (logP). The note with it: octanol/water. Type of data set: physicochemical.
For another data set, the species on record is Mus musculus. Description: log(1/C) was estimated in mice. In kind it is organism-based. The conditions noted are these: in vivo.
The test system of data set [2] is P388. The experiment in a line: Minimum effective dose was determined on P388 leukemia cells in mice. Type of data set: functional, Mus musculus. The conditions noted are these: for minimal effective dose: Mus musculus, P388, read-out: MED.
For data set [3], the system named is P388. Description: Maximal effect of the given optimal dose of 3.2 mg/kg against P388 leukemia cells in mice. In kind it is functional, Mus musculus.
In data set [4] the test system is P388. Description: Maximal effect of the given optimal dose of 12.8 mg/kg against P388 leukemia cells in mice. Type of data set: functional, Mus musculus.

With `CO[C@@]12C(COC(N)=O)C3=C(C(=O)C(C)=C(OCCOc4ccccc4)C3=O)N1CC1NC12` (some centres undefined), the logP in data set [1] is 2.39. Besides, the “Log 1/C” value in the data set listed under Mus musculus is 5.45. Also, in the data set on P388 [2], the MED stood at 3.516e-06 M/kg and the minimal effective dose was 1.6 mg/kg. Besides, the T/C with P388 [3] is 130%.

With `CO[C@@]12C(COC(N)=O)C3=C(C(=O)C(C)=C(OCc4cccs4)C3=O)N1CC1NC12` (some centres undefined), in data set [1], the logP turned out to be 2.07. The “Log 1/C” value in the data set filed under Mus musculus is given as 5.15. In the data set with P388 [2], the MED worked out at 7.13e-06 M/kg and the minimal effective dose was found to be 3.2 mg/kg. In the data set on P388 [3], this compound registered a T/C of 159%.

`CO[C@@]12C(COC(N)=O)C3=C(C(=O)C(C)=C(OC/C=C/CO)C3=O)N1CC1NC12` (some centres undefined): the log partition coefficient (logP) in data set [1] amounted to 0.46. Also, in the data set listed under Mus musculus, the “Log 1/C” value is recorded as 6.21. In addition, in the data set on P388 [2], the MED came to 4.83e-07 M/kg and the minimal effective dose worked out at 0.2 mg/kg. This compound displayed a T/C in the data set with P388 [3] of 150%.

For `CO[C@@]12C(COC(N)=O)C3=C(C(=O)C(C)=C(OCCNC(C)=O)C3=O)N1CC1NC12` (some centres undefined), the logP in data set [1] was -0.21. Besides, the “Log 1/C” value in the data set listed under Mus musculus was 6.03. In addition, in the data set on P388 [2], the MED turned out to be 9.32e-07 M/kg and the minimal effective dose was 0.4 mg/kg. This compound came in with a T/C with P388 [4] of 150%.

In turn, `CO[C@@]12C(COC(N)=O)C3=C(C(=O)C(C)=C(OCCN4CCCCC4)C3=O)N1CC1NC12` (some centres undefined) showed a lipophilicity (logP) in data set [1] of 1.96. Also, the “Log 1/C” value in the data set listed under Mus musculus is recorded as 6.06. In the data set with P388 [2], the MED amounted to 8.71e-07 M/kg and the minimal effective dose turned out to be 0.4 mg/kg. In addition, the T/C with P388 [4] is listed as 191%.

`CCSCC(O)COC1=C(C)C(=O)C2=C(C1=O)C(COC(N)=O)[C@@]1(OC)C3NC3CN21` (some centres undefined): in data set [1], the logP worked out at 1.25. In addition, the “Log 1/C” value in the data set listed under Mus musculus is 6.37. In addition, in the data set with P388 [2], the MED worked out at 4.33e-07 M/kg and the minimal effective dose is 0.2 mg/kg. The same compound had a T/C with P388 [3] of over 322%.

Regarding `CCO[Si](CCCOC1=C(C)C(=O)C2=C(C1=O)C(COC(N)=O)[C@@]1(OC)C3NC3CN21)(OCC)OCC` (some centres undefined), the “Log 1/C” value in the data set filed under Mus musculus is recorded as 6.44. In addition, in the data set with P388 [2], the MED amounted to 3.59e-07 M/kg and the minimal effective dose came out at 0.2 mg/kg. Besides, the T/C in the data set on P388 [4] was 167%.

For `CCN1CCCC1CCOC1=C(C)C(=O)C2=C(C1=O)C(COC(N)=O)[C@@]1(OC)C3NC3CN21` (some centres undefined), the logP in data set [1] came to 1.96. Besides, the “Log 1/C” value in the data set listed under Mus musculus is on record as 6.96. In addition, in the data set with P388 [2], the MED was 1.09e-07 M/kg and the minimal effective dose is under 0.1 mg/kg. In the data set on P388 [4], this compound displayed a T/C of 211%.

`CO[C@@]12C(COC(N)=O)C3=C(C(=O)C(C)=C(OCCSc4ccccc4)C3=O)N1CC1NC12` (some centres undefined): the log partition coefficient (logP) in data set [1] was 3.12. The “Log 1/C” value in the data set filed under Mus musculus is 5.17. Further, in the data set on P388 [2], the MED was determined as 6.73e-06 M/kg and the minimal effective dose is 3.2 mg/kg. The T/C in the data set on P388 [4] was found to be 130%.

Compound `CCOC(=O)CCCOC1=C(C)C(=O)C2=C(C1=O)C(COC(N)=O)[C@@]1(OC)C3NC3CN21` (some centres undefined) displayed a lipophilicity (logP) in data set [1] of 1.49. Also, the “Log 1/C” value in the data set listed under Mus musculus is 4.85. Also, in the data set with P388 [2], the MED is 1.41e-05 M/kg and the minimal effective dose was 6.4 mg/kg. Moreover, in the data set with P388 [4], the T/C is recorded as 171%.

In the case of `CO[C@@]12C(COC(N)=O)C3=C(C(=O)C(C)=C(OCCCN4CCN(C)CC4)C3=O)N1CC1NC12` (some centres undefined), the lipophilicity (logP) in data set [1] came to 1.16. In the data set listed under Mus musculus, the “Log 1/C” value was 4.9. In addition, in the data set with P388 [2], the MED was 1.265e-05 M/kg and the minimal effective dose amounted to 6.4 mg/kg. The compound also had a T/C in the data set with P388 [4] of over 167%.

In data set [1], `CO[C@@]12C(COC(N)=O)C3=C(C(=O)C(C)=C(OCCC4CCCN4C)C3=O)N1CC1NC12` (some centres undefined) displayed a lipophilicity (logP) of 1.46. Further, the “Log 1/C” value in the data set listed under Mus musculus was 5.21. In the data set on P388 [2], the MED turned out to be 7.033e-06 M/kg and the minimal effective dose was determined as 3.2 mg/kg. The compound further gave a T/C in the data set on P388 [4] of over 156%.

The compound `CO[C@@]12C(COC(N)=O)C3=C(C(=O)C(C)=C(OC4CCN(C)CC4)C3=O)N1CC1NC12` (some centres undefined) displayed a log partition coefficient (logP) in data set [1] of 1.46. For the same compound, the “Log 1/C” value in the data set listed under Mus musculus is on record as 5.15. Also, in the data set on P388 [2], the MED turned out to be 7.1e-06 M/kg and the minimal effective dose turned out to be 3.2 mg/kg. Moreover, the T/C with P388 [3] turned out to be 155%.
